Measured values taken from ChEMBL document CHEMBL5126521, “Analgesic Opioid Ligand Discovery Based on Nonmorphinan Scaffolds Derived from Natural Sources” (J Med Chem, 2022).
Square brackets hold non-standard residues; d marks the D form. Peptide text beside a SMILES is read from it. Sar = CNCC(=O)O

Legend:
Mu-type opioid receptor [1] = molecular target: T1, Mu-type opioid receptor (Homo sapiens, UniProt P35372); assay: Displacement of [3H]DAMGO from human MOP expressed in CHO-K1 cell membrane incubated for 60 mins by Microscint-counting analysis; assay type: cell membranes
Mu-type opioid receptor [2] = molecular target: T1, Mu-type opioid receptor; assay: Agonist activity at human MOP expressed in CHO-K1 cell membrane assessed as [35S]GTPgammaS binding; assay type: functional, cell membranes
Rattus norvegicus [3] = assay: Antinociceptive activity in Sprague-Dawley rat assessed as tail flick response in warm water administered po; assay type: functional
[4] = molecular target: T2, Delta-type opioid receptor (Homo sapiens, UniProt P41143); assay: Displacement of [3H]DPDPE from human DOP expressed in CHO-K1 cell membrane incubated for 60 mins by Microscint-counting analysis; assay type: cell membranes
Mus musculus [5] = assay: Antinociceptive activity in Swiss albino mouse assessed tail flick response in warm water administered icv; assay type: functional
Mu-type opioid receptor [6] = molecular target: T3, Mu-type opioid receptor (Rattus norvegicus, UniProt P33535); assay: Inhibition of Wistar rat brain membrane MOP; assay type: cell membranes
Mu-type opioid receptor [7] = molecular target: T1, Mu-type opioid receptor; assay: Agonist activity at human recombinant MOP expressed in CHO cells by calcium mobilization assay; assay type: functional, cell-based
[8] = molecular target: T4, Kappa-type opioid receptor (Rattus norvegicus, UniProt P34975); assay: Inhibition of Wistar rat brain membrane KOP; assay type: cell membranes
[9] = molecular target: Delta-type opioid receptor (Rattus norvegicus, UniProt P33533); assay: Inhibition of Wistar rat brain membrane DOP; assay type: cell membranes
[10] = molecular target: Kappa-type opioid receptor (Mus musculus, UniProt P33534); assay: Displacement of [3H]U-69593 from mouse spinal cord KOP measured after 60 mins by liquid scintillation counter analysis; assay type: tissue-based
Mus musculus [11] = assay: Antinociceptive activity in mouse administered sc by tail pressure test; assay type: functional
Mus musculus [12] = species: Mus musculus; assay: Antinociceptive activity in mouse […]; assay type: functional; details: time 2 hrs
Mu-type opioid receptor [13] = molecular target: Mu-type opioid receptor (Mus musculus, UniProt P42866); assay: Displacement of [3H]DAMGO from mouse spinal cord MOP measured after 60 mins by liquid scintillation counter analysis; assay type: tissue-based
Mus musculus [14] = assay: Antinociceptive activity in mouse administered po by tail pressure test; assay type: functional
[15] = molecular target: T5, Delta-type opioid receptor (Mus musculus, UniProt P32300); assay: Displacement of [3H]deltorphin-II from mouse spinal cord DOP measured after 60 mins by liquid scintillation counter analysis; assay type: tissue-based
Mus musculus [16] = assay: Antinociceptive activity in mouse administered IT by tail pressure test; assay type: functional
Mus musculus [17] = species: Mus musculus; assay: Antinociceptive activity in mouse by tail pressure test; assay type: functional
Mus musculus [18] = assay: Antinociceptive activity in mouse administered icv; assay type: functional
Mu-type opioid receptor [19] = molecular target: Mu-type opioid receptor (Cavia porcellus, UniProt P97266); assay: (§1) Antagonist activity at guinea pig ileum MOP; assay type: functional, tissue-based
[20] = molecular target: T5, Delta-type opioid receptor; assay: Displacement of [3H]DPDPE from mouse DOP stably expressed in CHO cell membrane; assay type: cell membranes
Mu-type opioid receptor [21] = molecular target: T3, Mu-type opioid receptor; assay: Displacement of [3H]DAMGO from rat MOP stably expressed in CHO cell membrane; assay type: cell membranes
[22] = molecular target: T4, Kappa-type opioid receptor; assay: Displacement of [3H]diprenorphine from rat KOP stably expressed in CHO cell membrane; assay type: cell membranes
Mu-type opioid receptor [23] = molecular target: T1, Mu-type opioid receptor; assay: Antagonist activity at human MOP stably expressed in CHO cell membrane assessed as [35S]GTPgammaS binding; assay type: functional, cell membranes
Mus musculus [24] = assay: Antinociceptive activity in icv dosed C57BL/6J mouse assessed as tail withdrawal latency from warm water; assay type: functional
[25] = molecular target: Kappa-type opioid receptor (Homo sapiens, UniProt P41145); assay: Antagonist activity at human KOP stably expressed in CHO cell membrane assessed as [35S]GTPgammaS binding; assay type: functional, cell membranes
Rattus norvegicus [26] = assay: Antinociceptive activity in rat administered sc; assay type: functional
[27] = Displacement of [3H]DPDPE from calf frontal cortex membrane Delta-type opioid receptor by competitive binding assay; assay type: cell membranes, Bos taurus
Mu-type opioid receptor [28] = molecular target: Mu-type opioid receptor (Bos taurus, UniProt P79350); assay: Displacement of [3H]DAMGO from calf thalamus membrane MOP by competitive binding assay; assay type: cell membranes
[29] = molecular target: Kappa-type opioid receptor (Cavia porcellus, UniProt P41144); assay: Displacement of [3H]U69593 from guinea pig cerebellum KOP by competitive binding assay; assay type: tissue-based
Rattus norvegicus [30] = assay: Antinociceptive activity in rat administered iv; assay type: functional
Mus musculus [31] = assay: Antinociceptive activity in mouse administered IT; assay type: functional
Rattus norvegicus [32] = assay: Antinociceptive activity in rat administered IT; assay type: functional
[33] = molecular target: Mu-type opioid receptor (Cavia porcellus) (UniProt P97266); assay: as §1; assay type: functional, tissue-based; details: filed as antagonist
Rattus norvegicus [34] = species: Rattus norvegicus; assay: Antinociceptive activity in rat; assay type: functional
[35] = Toxicity in rat assessed as inhibition of gastrointestinal transit at 100 to 300 pmol icv or IT by charcoal meal test; details: in vivo, icv_or_intrathecal, dose 100-300 pmol
Mus musculus [36] = assay: Antinociceptive activity in mouse administered po; assay type: functional
Mus musculus [37] = assay: Antinociceptive activity in mouse assessed as tail-flick latency administered icv […]; assay type: functional
Rattus norvegicus [38] = assay: Antinociceptive activity in rat at 2.5 to 5 mg/kg, icv
Mus musculus [39] = assay: Antinociceptive activity in mouse administered icv by tail pressure test; assay type: functional
Mus musculus [40] = species: Mus musculus; assay: Antinociceptive activity in mouse by hot plate test
[41] = molecular target: T2, Delta-type opioid receptor; assay: Displacement of [3H]DPDPE from DOP (unknown origin) stably expressed in HEK293 cells by liquid scintillation counter analysis; assay type: cell-based
Mu-type opioid receptor [42] = molecular target: T1, Mu-type opioid receptor; assay: Displacement of [3H]DAMGO from MOP (unknown origin) stably expressed in HEK293 cells by liquid scintillation counter analysis; assay type: cell-based
Mus musculus [43] = assay: Antinociceptive activity in Kunming mouse assessed as tail flick response in warm water administered iv; assay type: functional
Mu-type opioid receptor [44] = molecular target: T1, Mu-type opioid receptor; assay: Agonist activity at MOP (unknown origin) stably expressed in HEK293 cells assessed as forskolin stimulated cAMP accumulation incubated for 30 mins by radioactivity based scintillation counter analysis; assay type: functional, cell-based
Mu-type opioid receptor [45] = molecular target: T1, Mu-type opioid receptor; assay: Agonist activity at MOP (unknown origin) stably expressed in HEK293 cells assessed as forskolin stimulated cAMP accumulation incubated for 30 mins by radioactivity based scintillation counter analysis relative to control; assay type: functional, cell-based; details: filed as agonist
Mus musculus [46] = assay: Antinociceptive activity in Kunming mouse assessed tail flick response in warm water administered icv; assay type: functional
[47] = Stability in mouse brain homogenate assessed as half life; assay type: ADME, tissue-based
[48] = Stability in mouse serum assessed as half life; assay type: ADME, cell-free

NC(=O)[C@@H]1CCCCNC(=O)CC[C@@H](NC(=O)[C@@H](N)Cc2ccc(O)cc2)C(=O)N[C@@H](Cc2ccccc2)C(=O)N[C@@H](Cc2ccccc2)C(=O)N1
Ki (Mu-type opioid receptor [1]): 0.96 nM
EC50 (Mu-type opioid receptor [2]): 1.5 nM
ED50 (Rattus norvegicus [3]): 3.5 µmol
Ki [4]: 82 nM

CCNC(=O)C[C@H](NC(=O)[C@H](Cc1ccccc1)NC(=O)[C@H](Cc1ccccc1)NC(=O)[C@@H](CCCCNC(=O)C[C@H](NC(=O)[C@H](Cc1ccccc1)NC(=O)[C@H](Cc1ccccc1)NC(=O)CNC(=O)[C@@H](N)Cc1ccc(O)cc1)C(N)=O)NC(=O)[C@@H](N)Cc1ccc(O)cc1)C(N)=O
ED50 (Mus musculus [5]): 1.96 nmol
IC50 (Mu-type opioid receptor [6]): 26.2 nM
EC50 (Mu-type opioid receptor [7]): 5.01 nM
IC50 [8]: 32 nM
IC50 [9]: > 1000 nM

CN(CCC(=O)O)C(=O)[C@H](Cc1ccccc1)NC(=O)[C@@H](CCCNC(=N)N)NC(=O)[C@H](Cc1ccc(O)cc1)NC(=N)N
Ki [10]: > 1000 nM
ED50 (Mus musculus [11]): 0.09 mg/kg
ED50 (Mus musculus [12]): 0.07 mg/kg
Ki (Mu-type opioid receptor [13]): 12.9 nM
ED50 (Mus musculus [14]): 5.8 mg/kg
Ki [15]: > 1000 nM

N=C(N)NCCC[C@@H](NC(=O)[C@@H](N)Cc1ccc(O)cc1)C(=O)N[C@@H](Cc1ccccc1)C(=O)NCC(=O)O (H-Y[dR]FG-OH)
ED50 (Mus musculus [16]): 1 pmol
ED50 (Mus musculus [17]): 5.8 pmol
ED50 (Mus musculus [18]): 10.3 pmol
IC50 (Mu-type opioid receptor [19]): 10.8 nM

C[C@@H]1NC(=O)[C@H]2CCCN2C(=O)[C@H](Cc2ccccc2)NC(=O)[C@@H](Cc2c[nH]c3ccccc23)NC1=O
Ki [20]: 10000 nM
Ki (Mu-type opioid receptor [21]): 299 nM
Ki [22]: 167 nM
IC50 (Mu-type opioid receptor [23]): 1470 nM
ED50 (Mus musculus [24]): 1.04 nmol
IC50 [25]: 397 nM

CN(CC(=O)O)C(=O)[C@H](Cc1ccccc1)NC(=O)[C@@H](CCCN=C(N)N)NC(=O)[C@@H](N)Cc1ccc(O)cc1 (H-Y[dR]F[Sar]-OH)
ED50 (Rattus norvegicus [26]): 0.61 mg/kg
Ki [27]: 562 nM
Ki (Mu-type opioid receptor [28]): 0.5 nM
Ki [29]: > 10000 nM
ED50 (Rattus norvegicus [30]): 0.8 µmol/kg
ED50 (Mus musculus [31]): 4.5 pmol
ED50 (Rattus norvegicus [32]): 18 pmol
IC20 [33]: 21 nM
IC50 (Mu-type opioid receptor [19]): 6.9 nM
ED50 (Rattus norvegicus [34]): 4.1 pmol
ED50 [35]: 0.053 mg/kg
ED50 (Mus musculus [36]): 26 µmol/kg

CN1CC[C@]23c4c5ccc(O)c4O[C@H]2[C@@H](O)C=C[C@H]3[C@H]1C5 [MORPHINE]
ED50 (Mus musculus [37]): 17.3 nmol
ED50 (Mus musculus [16]): 0.72 pmol
ED50 (Rattus norvegicus [30]): 1.6 µmol/kg
ED50 (Mus musculus [17]; Mus musculus, read-out: ED50): 77.2 µmol/kg
ED50 (Mus musculus [11]): 12.2 µmol/kg
ED50 (Mus musculus [18]): 8700 pmol
ED50 (Rattus norvegicus [38]): 169 µmol/kg
ED50 (Mus musculus [39]): 1.05 nmol
ED50 (Mus musculus [40]): 11.3 µmol/kg
ED50 (Rattus norvegicus [34]; Rattus norvegicus, read-out: ED50): 5.8 µmol/kg

C=C(C(N)=O)[C@@H](NC(=O)[C@H](Cc1c[nH]c2ccccc12)NC(=O)[C@@H](C)N(C)C(=O)[C@@H](N)Cc1c(C)cc(O)cc1C)c1ccco1
Ki [41]: 33.3 nM
Ki (Mu-type opioid receptor [42]): 0.011 nM
ED50 (Mus musculus [43]): 0.382 mg/kg
EC50 (Mu-type opioid receptor [44]): 0.0018 nM
Emax (Mu-type opioid receptor [45]): 98.3%
ED50 (Mus musculus [46]): 0.000695 µmol/kg
half-life [47]: ≥ 5 h
half-life [48]: ≥ 5 h
